# PubChem BioAssay (NCI)
# Several values for one entry are separate records, joined by “and”; a condition that tells them apart may be missing. Equal entries are not always repeated.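 Growth conditions: 96-well plates. Treatment: test compound, 48 hours, 5 concentrations. Analysis: linear interpolation between bracketing concentrations; unreached endpoints set to highest concentration. GI50 is the concentration that inhibits growth by half. The concentration for full growth arrest is given as TGI.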
# Assays:
# Test in all cases: NCI-60 cell line screen, 48 h
# COLO 205 colon = tested on: COLO 205 colon
# HOP-92 NSCLC = tested on: HOP-92 NSCLC
# HT29 colon = tested on: HT29 colon
# KM12 colon = tested on: KM12 colon
# NCI-H23 lung = tested on: NCI-H23 lung
# NCI-H522 lung = tested on: NCI-H522 lung
# SF-295 CNS = tested on: SF-295 CNS
# SF-539 CNS = tested on: SF-539 CNS
# SNB-19 CNS = tested on: SNB-19 CNS
# UO-31 renal = tested on: UO-31 renal
Structure (SMILES),GI50 (COLO 205 colon),TGI (COLO 205 colon),GI50 (HOP-92 NSCLC),TGI (HOP-92 NSCLC),GI50 (HT29 colon),TGI (HT29 colon),GI50 (KM12 colon),TGI (KM12 colon),GI50 (NCI-H23 lung),TGI (NCI-H23 lung),GI50 (NCI-H522 lung),TGI (NCI-H522 lung),GI50 (SF-295 CNS),TGI (SF-295 CNS),GI50 (SF-539 CNS),TGI (SF-539 CNS),GI50 (SNB-19 CNS),TGI (SNB-19 CNS),GI50 (UO-31 renal),TGI (UO-31 renal)
Cc1c(CN2CCN(C(=O)[C@H](C)O)CC2)sc2c(N3CCOCC3)nc(-c3cnc(N)nc3)nc12,0.224 µM and 0.233 µM,> 5.47 µM and 9.5 µM,0.143 µM and 0.0181 µM,0.8 µM and 0.108 µM,0.207 µM and 0.174 µM,> 56.8 µM,0.755 µM and 0.393 µM,> 10 µM and 15.2 µM,0.389 µM and 0.181 µM,> 100 µM,0.22 µM and 0.156 µM,> 10 µM,0.131 µM and 0.0822 µM,1.72 µM and 0.529 µM,0.388 µM and 0.222 µM,2.27 µM and 0.875 µM,0.898 µM and 0.313 µM,> 10 µM and 6.16 µM,0.0579 µM and 0.053 µM,1.35 µM and 0.658 µM
Cc1c(Cn2c(C)nc3c(C(=O)O)cc(N4CCOCC4)cc32)cccc1C(F)(F)F,49.2 µM,> 100 µM,14.1 µM,> 100 µM,57.3 µM,> 100 µM,56.7 µM,> 100 µM,81.5 µM,> 100 µM,89 µM,> 100 µM,11 µM,> 84.4 µM,72.6 µM,> 100 µM,> 100 µM,> 100 µM,3.46 µM,> 67.6 µM
CCN(CC)CCN(CC)CC.CCN(CC)CCN(CC)CC.[Cu+2].[Cu+2].[O-][Cl+3]([O-])([O-])[O-].[OH3+].[OH3+],> 100 µM,> 100 µM,> 100 µM,> 100 µM,25.6 µM,87.9 µM,18.2 µM,34.2 µM,31.1 µM,77.8 µM,25.6 µM,55.2 µM,34.4 µM,98.9 µM,> 100 µM,> 100 µM,22 µM,36.6 µM,> 100 µM,> 100 µM
Fc1cccc(COc2ccc(Nc3ncnc4onc(-c5ccccc5)c34)cc2)c1,0.202 µM,0.787 µM,0.264 µM,62.8 µM,0.0495 µM,> 34 µM,0.173 µM,> 38.4 µM,0.583 µM,> 100 µM,0.138 µM,0.905 µM,0.405 µM,> 26.7 µM,0.185 µM,1.09 µM,0.339 µM,> 100 µM,3 µM,26.8 µM
CCOC(=O)C1(C(=O)OCC)C(C(C)(C)C)=C(C)c2ccccc21,–,26.8 µM,–,16.7 µM,–,23.8 µM,–,25.9 µM,–,30.4 µM,–,22.2 µM,–,30.2 µM,–,32.8 µM,–,45 µM,–,47.3 µM
Cc1ccc(OP(=O)(Oc2ccc(C)cc2)N2C=Cc3ccccc3C2C#N)cc1 (stereo unspecified),–,> 100 µM,–,> 100 µM,–,> 100 µM,–,> 100 µM,–,> 100 µM,–,> 100 µM,–,> 100 µM,–,> 100 µM,–,> 100 µM,–,> 100 µM
COc1cc(-n2ccnc2-c2ccc3ccccc3c2)cc(OC)c1OC,< 0.0282 µM,0.785 µM,3.72 µM,28.9 µM,< 0.0222 µM,> 37.6 µM,< 0.0198 µM,18.9 µM,0.223 µM,13.4 µM,< 0.0175 µM,13.2 µM,0.0363 µM,42.5 µM,0.099 µM,2.06 µM,0.131 µM,> 36.7 µM,0.28 µM,35 µM
CC1(C)N=C(N)N=C(N)N1c1ccc(CNC(=O)Nc2ccc(S(=O)(=O)F)c(Cl)c2)c(Cl)c1,0.867 µM,> 100 µM,19.9 µM,97.5 µM,0.195 µM,> 67.3 µM,0.589 µM,> 100 µM,0.585 µM,> 100 µM,0.624 µM,40.2 µM,5.41 µM,> 100 µM,1.11 µM,25 µM,3.64 µM,> 100 µM,53.7 µM,> 100 µM
CC(C)(C)OC(=O)NCC(CNC(=O)OC(C)(C)C)C(N)=O,–,> 100 µM,–,> 100 µM,–,> 100 µM,–,> 100 µM,–,> 100 µM,–,> 100 µM,–,> 100 µM,–,> 100 µM,–,> 100 µM,–,> 100 µM
CCOC(=O)c1[nH]c2cc(Cl)ccc2c1[C@@H](C(=O)NC(C)(C)C)N(CC)C(=O)CCCCC#Cc1cccc2c1CN(C1CCC(=O)NC1=O)C2=O (stereo partly specified),0.0308 µM,2.53 µM,< 0.01 µM,< 0.0238 µM,2.13 µM,> 100 µM,0.901 µM,> 100 µM,3.93 µM,21.2 µM,1.8 µM,25.8 µM,1.14 µM,3.88 µM,1.74 µM,11.7 µM,0.0731 µM,34.5 µM,0.0425 µM,2.95 µM
O=C(C[n+]1ccccc1)N/N=C(/CCC(=O)N(Cc1ccccc1)Cc1ccccc1)CC(=O)c1ccccc1,–,> 100 µM,–,> 100 µM,–,> 100 µM,–,> 100 µM,–,> 100 µM,–,> 100 µM,–,> 100 µM,–,> 100 µM,–,> 100 µM,–,> 100 µM
COC[C@H](NC(=O)c1cnc(C)s1)C(=O)N[C@@H](COC)C(=O)N[C@@H](Cc1ccccc1)C(=O)[C@@]1(C)CO1,37.4 µM,> 100 µM,30.3 µM,> 82.4 µM,21.1 µM,> 75.7 µM,21.4 µM,56 µM,36.6 µM,> 100 µM,12.8 µM,63 µM,20.1 µM,72.7 µM,27.7 µM,> 74.1 µM,> 65.3 µM,> 100 µM,30.9 µM,> 100 µM
OC1CC2CCC(C1)N2CCCN1c2ccccc2Sc2ccc(Cl)cc21 (stereo unspecified),–,3.35 µM,–,9.39 µM,–,3.63 µM,–,4.08 µM,–,8.12 µM,–,4.19 µM,–,3.67 µM,–,3.89 µM,–,13.5 µM,–,7.09 µM
CSc1ccc(C2=NN(C(C)=O)C(c3ccc(-c4cc(Cl)c(Cl)cc4Cl)o3)C2)cc1 (stereo unspecified),16.8 µM,32.1 µM,11.2 µM,23.6 µM,12.9 µM,26.7 µM,16.9 µM,35.7 µM,15.4 µM,29.6 µM,13.2 µM,29.7 µM,18.3 µM,45.5 µM,15.8 µM,29.5 µM,17.9 µM,32.3 µM,12.4 µM,25.4 µM
NC(=O)c1cc(N2CC2)c([N+](=O)[O-])cc1[N+](=O)[O-],> 200 µM,> 200 µM,> 200 µM,> 200 µM,> 200 µM,> 200 µM,> 200 µM,> 200 µM,> 200 µM,> 200 µM,> 200 µM,> 200 µM,> 200 µM,> 200 µM,> 200 µM,> 200 µM,> 200 µM,> 200 µM,> 200 µM,> 200 µM
CC(=O)O.CN1[CH-]N(Cc2ccc(C#N)cc2)c2ccccc21.[Ag+],10.3 µM,31.5 µM,20.3 µM,40.7 µM,21.6 µM,44.4 µM,> 100 µM,> 100 µM,20.8 µM,58 µM,14.5 µM,82.4 µM,82.3 µM,> 100 µM,43.7 µM,> 100 µM,29.3 µM,> 100 µM,16.2 µM,30.3 µM
Cc1ccc(CNc2ccc3nc(CCC4CCCCC4)[nH]c3c2)cc1,1.88 µM,3.66 µM,1.23 µM,3.49 µM,1.88 µM,5.19 µM,2.83 µM,9.05 µM,2.1 µM,4.88 µM,1.99 µM,5.13 µM,1.88 µM,3.92 µM,2.42 µM,6.06 µM,3.54 µM,> 100 µM,1.35 µM,3.3 µM
O=C(O)Cc1cccc2c(=O)cc(-c3ccccc3)oc12,636 µM,> 1000 µM,43.9 µM and 318 µM,178 µM and > 948 µM,489 µM,> 1000 µM,334 µM,250 µM and > 889 µM,581 µM,> 1000 µM,285 µM,250 µM and > 773 µM,400 µM,250 µM and > 1000 µM,398 µM,> 250 µM and 838 µM,> 909 µM,> 1000 µM,25.5 µM,> 64.4 µM and 174 µM and 334 µM
O=C1c2ccccc2-c2c3c(cc4ccnc1c24)OCO3,–,82.5 µM and 16 µM,–,39.9 µM and 37.1 µM,–,> 100 µM and 78 µM,–,> 100 µM,–,25.9 µM and 17.4 µM,0.885 µM and 4.26 µM,13.3 µM and 15.5 µM,–,33.6 µM and 48.4 µM,7.97 µM and 3.53 µM,53.5 µM and 37.8 µM,–,> 100 µM and 77.4 µM,–,23.9 µM and 14.8 µM
CCC(CC)n1cnc2c(-c3cnc(N)cn3)nc(N3CC4CCC(C3)O4)nc21,0.269 µM,> 83 µM,0.013 µM,0.145 µM,0.742 µM,> 100 µM,0.377 µM,> 100 µM,0.56 µM,> 100 µM,0.209 µM,> 100 µM,0.173 µM,1.59 µM,0.51 µM,4.19 µM,1.37 µM,> 100 µM,0.0961 µM,–
CCN1CCN(CCNc2nccc(-c3c(-c4ccc(F)c(O)c4)nc4occn34)n2)S1(=O)=O,4.6 µM,> 100 µM,52.1 µM,> 100 µM,4.2 µM,> 100 µM,3.72 µM,> 100 µM,4.12 µM,> 100 µM,2.93 µM,> 100 µM,5.27 µM,> 100 µM,> 100 µM,> 100 µM,> 100 µM,> 100 µM,2.66 µM,> 100 µM
COc1ccccc1C#Cc1ccccc1C#Cc1ccc(OCCCCCCOc2ccccc2C#Cc2ccccc2C#Cc2ccccc2OC)cc1,> 100 µM,> 100 µM,90.1 µM,> 100 µM,> 100 µM,> 100 µM,> 100 µM,> 100 µM,> 100 µM,> 100 µM,> 100 µM,> 100 µM,> 100 µM,> 100 µM,> 100 µM,> 100 µM,> 100 µM,> 100 µM,> 100 µM,> 100 µM
Cc1ccc(NCC2(/N=C/c3ccccc3)OC(CO)C(O)C2O)cc1 (stereo unspecified),–,> 100 µM,–,> 100 µM,–,> 100 µM,–,> 100 µM,–,> 100 µM,–,> 100 µM,–,> 100 µM,–,> 100 µM,–,> 100 µM,–,> 100 µM
O=S(=O)(N=C1C(Cl)=C(Cl)C(=NS(=O)(=O)c2ccccc2)C(Cl)=C1Cl)c1ccccc1,23.9 µM,88.8 µM,56.9 µM,> 100 µM,15.4 µM,49.2 µM,12.2 µM,25.6 µM,25.6 µM,> 100 µM,11.1 µM,29.7 µM,29.5 µM,93.8 µM,45.6 µM,> 100 µM,38.2 µM,> 100 µM,18.8 µM,48.9 µM
O=C1C2CCN(CC2)C1CN1CCOCC1 (stereo unspecified),–,3.27 µM,–,3.47 µM,–,16.9 µM,–,30.8 µM,–,23.9 µM,–,1.99 µM,–,33.9 µM,–,29 µM,–,32.6 µM,–,7.14 µM
Oc1ccccc1-c1nn(CNc2ccc(Cl)cc2)c(=S)o1,7.01 µM,> 100 µM,88.8 µM,> 100 µM,24.2 µM,88.1 µM,11.7 µM,> 100 µM,0.511 µM,64.5 µM,> 100 µM,> 100 µM,> 100 µM,> 100 µM,23.8 µM,> 100 µM,> 100 µM,> 100 µM,> 100 µM,> 100 µM
CN(C)CCNc1ccc2ncn3c4ccc(O)cc4c(=O)c1c23,–,9.32 µM,–,13.8 µM,–,7.39 µM,–,> 35.7 µM,–,10.9 µM,–,5.68 µM,–,14 µM,–,14.7 µM,–,17.2 µM,–,8.06 µM
